Reference: US20010009764A1, “Endothelial-derived toxic factor” (priority 1997, published 2001)

Experiments:
[1] = test system: primary cerebral cortical cultures; assay: Neurotoxicity (LDH release) of AD microvessel-conditioned medium; type: cell-based, rat
Experimental: Microvessels stored in liquid nitrogen, were quick-thawed at 37° C. and centrifuged at 2,000×g for 10 min. The vessels were washed 3 times with cold Hank's balanced salt-solution and resuspended in serum-free DMEM (2 ml) containing 1% lactalbumin hydrolysate. Microvessels were allowed to “recover” for 1 h, after which they released little LDH. The microvessels were washed by centrifugation and resuspended at a concentration of 100 μg protein per ml in serum-free DMEM containing 1% lactalbumin hydrolysate. The microvessels were then incubated for variable times (4-24 h) in a CO2 incubator, centrifuged, and the conditioned medium was sterile-filtered through a 0.4 μm filter, and used immediately.
Procedures for primary neuronal cultures prepared from fetal rat brains were previously described (Grammas P, Moore P, Weigel P H, “Production of Neurotoxic Factors by Brain Endothelium in AD”, Ann. NY Acad. Sci., 826, 1997, which is hereby incorporated herein by reference.) Neurons are obtained and cultured from 17 day fetal rats. […] The purity of these cultures was determined by antibody reactivity to neuronal-specific enolase.
Cell death by necrosis was determined by release of cytoplasmic lactate dehydrogenase (LDH) (Grammas et al., “Production Of Neurotoxic Factors By Brain Endothelium In AD”, Ann NY Acad Sci, 826:47-55, 1997). […] The A490 of each well was measured to determine LDH activity. […]

neuronal cultures [2] = assay: Neuronal cytotoxicity (LDH release) of conditioned media from rat brain endothelial cells treated with PKC modulators; type: cell-based; details: for EDTF^BIM release from endothelial cell cultures: treatment with other PKC inhibitors; for cytotoxic response as % of that elicited by BIM: inhibitor 1 μM on endothelial cells, BIM-mediated cytotoxicity = 100%
Experimental: FIG. 8. Specificity of endothelial derived toxic factor EDTF response to Protein Kinase C inhibition. To confirm that production of EDTF in response to BIM (EDTF^BIM) was indeed related to PKC inhibition, the effect of other PKC inhibitors, calphostin (Cal) and stauroporine (S'sporin) as well as the PKC agonist PMA, were examined. Endothelial cell cultures were incubated in serum-free media (control) containing either BIM (1 μM); BIM and PMA (1 μM each); calphostin (1 μM); or staurosporine (1 μM). The media were collected after 24 hours and added to neuronal cultures and cytotoxicity (LDH release) was measured after 24 hours. Data are expressed as a percentage of the BIM-mediated cytotoxicity (100%).
(§1) Cell death by necrosis was determined by release of cytoplasmic lactate dehydrogenase (LDH) (Grammas et al., “Production Of Neurotoxic Factors By Brain Endothelium In AD”, Ann NY Acad Sci, 826:47-55, 1997). Medium (100 μl) from the neuronal cultures was removed, added to a 96-well plate, the chromogenic substrate added, and the plate was incubated at room temperature for 30 min in darkness. The A490 of each well was measured to determine LDH activity. Data (% cytotoxicity) were expressed as a percentage of total LDH released by treatment with 1% Triton X-100 added to the same well. Vascular LDH release, determined for microvessel-containing inserts placed in wells without neuronal cells, was subtracted from each co-culture point. Each point was performed in duplicate.
For the preparation of endothelial-conditioned media, the media were removed and confluent endothelial cell cultures washed with versene and fresh serum-free DMEM containing (unless otherwise indicated) 1 μM of the PKC inhibitor, bisindolylmaleimide (BIM), was added. The conditioned medium was collected, after 8-24 hrs, and centrifuged at 100,000 g to remove debris and suspended cells, and 5% heat-inactivated horse serum was added prior to application of media to neuronal cultures.
Neurons were obtained and cultured from 15-18 day rat embryos by published methods (Dawson V. L., Dawson, T. M., London E. D., Bredt D. S., Snyder S. H., “Nitric Oxide Mediates Glutamate Neurotoxicity in Primary Cortical Cultures”, Proc. Natl. Acad. Sci. USA, 88:6368-6371, 1991, with our modifications: Grammas P, Moore P, Weigel P H, “Production of Neurotoxic Factors by Brain Endothelium in AD”, Ann. NY Acad. Sci., 826, 1997). Cerebral cortices were isolated, dissociated in Brooks-Logan solution (5% phosphate buffered saline, 0.04 M sucrose, 10 mM HEPES, pH 7.5, 0.03 M glucose) by trituration and seeded in polylysine-coated 24 well plates (15), containing DMEM with 5% heat-inactivated horse serum. After five days of culture, the cells were treated with 10 μg of 5-fluoro-2′-deoxyuridine per well and cultures were maintained for an additional 2 to 3 weeks.

[3] = test system: primary cerebral cortical cultures; assay: Neuronal necrosis by candidate molecules at 4 h; type: cell-based, rat; details: data not shown
Experimental: as §1

endothelial cultures = type: cell-based, rat
Experimental: as §1
Small arterioles from rat brain were isolated, and endothelial cell cultures initiated, as previously published (Diglio C. A., Grammas P., Giacomelli F. and Wiener J., “Rat Cerebral Microvascular Smooth Muscle Cells in Culture”, J. Cell Physiol., 129:131-141, 1986; Diglio C. A., Liu W., Grammas P., Giacomelli F., and Wiener J., “Isolation and Characterization of Cerebral Resistance Vessel Endothelium in Culture”, Tissue and Cell, 25:833-846, 1993). […] Cells (passages 10-15) were maintained in Dulbecco's modified Eagle's medium (DMEM) and 10% fetal calf serum and subcultured using trypsin-versene (0.025%).

neuronal cultures [4] = type: cell-based, rat
Experimental: as §1
Neurons were obtained and cultured from 15-18 day rat embryos by published methods (Dawson V. L., Dawson, T. M., London E. D., Bredt D. S., Snyder S. H., “Nitric Oxide Mediates Glutamate Neurotoxicity in Primary Cortical Cultures”, Proc. Natl. Acad. Sci. USA, 88:6368-6371, 1991, with our modifications: Grammas P, Moore P, Weigel P H, “Production of Neurotoxic Factors by Brain Endothelium in AD”, Ann. NY Acad. Sci., 826, 1997). […]

N=C(NCCC[C@H](N)C(=O)O)N[N+](=O)[O-] [N^GNitro-L-arginine]
% neurotoxicity of conditioned medium ([1]; AD microvessels with or without preincubation with 10 μM N^GNitro-L-arginine): 69±12%

CCCCCCCCCCCCCC(=O)O[C@@H]1[C@@H](C)[C@@]2(O)[C@@H](C=C(CO)C[C@]3(O)C(=O)C(C)=C[C@@H]23)[C@@H]2C(C)(C)[C@]12OC(C)=O [PMA, phorbol myristate acetate]
reduction of neuronal cytotoxicity (EDTF^BIM release) compared to BIM alone (neuronal cultures [2]; concurrent PMA and BIM, 1 μM each, media collected 24 hours, LDH after 24 hours): approximately 60%

C[C@@H]1C[C@@H]([C@H](O)CC2CC(=O)NC(=O)C2)C(=O)[C@@H](C)C1 [cycloheximide]
decrease in neuronal necrosis ([1]; AD microvessels incubated with cycloheximide 10 μg/ml): 60%

CCCCCCCCCCCCC/C=C/[C@@H](O)[C@@H](N)CO [sphingosine]
EDTF^BIM release from endothelial cell cultures (neuronal cultures [2]): elicited EDTF^BIM release

CN[C@@H]1C[C@H]2O[C@@](C)([C@@H]1OC)n1c3ccccc3c3c4c(c5c6ccccc6n2c5c31)C(=O)NC4 [staurosporine]
cytotoxic response as % of that elicited by BIM (neuronal cultures [2]): 47%

amyloid β
neuronal necrosis at 4 h [3]: little neuronal necrosis

bisindolylmaleimide [BIM]
% cytotoxicity on endothelial cultures (endothelial cultures): 10% | % cytotoxicity when added directly to neuronal cultures (neuronal cultures [4]): 16%

calphostin
cytotoxic response as % of that elicited by BIM (neuronal cultures [2]): 60% | EDTF^BIM release from endothelial cell cultures (neuronal cultures [2]): elicited EDTF^BIM release

tumor necrosis factor α
neuronal necrosis at 4 h [3]: little neuronal necrosis
